Results on 5 molecules are retold here after publication PMC5893615, “Inhibition of homoserine dehydrogenase by formation of a cysteine-NAD covalent complex” (Scientific Reports, 2018).

Data set [1] concerns the target T1, Homoserine dehydrogenase (StHSD) (Sulfurisphaera tokodaii, UniProt F9VNG5).
T1 construct: gene hom
As to the kind of experiment: product inhibition kinetics of homoserine oxidation (double reciprocal plots). Type of data set: biochemical.

For data set [2], the target named is T1, Homoserine dehydrogenase (StHSD). As to the kind of experiment: crystal structure with cysteine at […] Å; steady-state kinetics (apparent Km). Type of data set: biochemical. Conditions: cited from earlier work.
For data set [3] the target is unchanged. As to the kind of experiment: crystal structure with NAD at […] Å; Ki from Dixon plots of homoserine oxidation by purified enzyme; difference UV spectrum. Type of data set: biochemical.
For data set [4] the target is unchanged. In words: initial velocity and product inhibition kinetics of NAD-dependent oxidation by purified enzyme. Type of data set: biochemical.
Substrate in data set [5]: NC(=O)c1ccc[n+]([C@@H]2O[C@H](COP(=O)([O-])OP(=O)(O)OC[C@H]3O[C@@H](n4cnc5c(N)ncnc54)[C@H](OP(=O)(O)O)[C@@H]3O)[C@@H](O)[C@H]2O)c1
In words: steady-state kinetics of purified enzyme (apparent Km). Type of data set: biochemical, Sulfurisphaera tokodaii. Particulars: Phe49 could exclude the C2′ phosphate group of NADP; varied: cofactor.

Turning to `NC(=O)C1=CN([C@@H]2O[C@H](COP(=O)(O)OP(=O)(O)OC[C@H]3O[C@@H](n4cnc5c(N)ncnc54)[C@H](O)[C@@H]3O)[C@@H](O)[C@H]2O)C=CC1` [NADH], in data set [1], the “product inhibition kinetics of homoserine oxidation (double reciprocal plots)” value is “which suggests that NADH acts as a competitive inhibitor of NAD”.
For the molecule `NC(=O)c1ccc[n+]([C@@H]2O[C@H](COP(=O)([O-])OP(=O)(O)OC[C@H]3O[C@@H](n4cnc5c(N)ncnc54)[C@H](O)[C@@H]3O)[C@@H](O)[C@H]2O)c1` [NAD], in data set [2], the Km (as a rule, the substrate concentration at which the rate is half of its maximum) was 330 µM.
For `N[C@@H](CS)C(=O)O` [cysteine], the Ki (as a rule, a measure of affinity in units of concentration, obtained from inhibition or displacement) in data set [3] is 11 µM.
Consider `N[C@@H](CCO)C(=O)O` [homoserine], for which the “initial velocity and product inhibition kinetics of NAD-dependent oxidation by p” value in data set [4] was “NAD binds to the free form of the enzyme, after which homoserine binds to the enzyme-NAD complex”.

B1: Homoserine dehydrogenase (StHSD) (Sulfurisphaera tokodaii str. 7) (protein)
chain: MKLLLFGYGNVGKAFRKLLHEKRSPELNDVIIGGIVTRRGIMLQDKEDFTPDLEGDVFKAFEKIKPDIIVDVSSANYNNGEPSLSLYKEAIKDGVNIITTNKAPLALAFNEIFSLARSKGVKIGFQGTVMSGTPSINLYRVLPGSRVIKIRGILNGTTNFILTLMNKGVSFEEALKEAQRRGYAEEDPTLDINGFDAAAKITILANFMIGNSVTIKDVKFEGINRDLPKNEKIKLIAYADEKEVWVKPLPISQDDPLYNVDGVENALEITTDIQSILIRGPGAGPVNAAYGALSDLILLKRDCL
As to B1, the Km in data set [5] worked out at 1200 µM.
